Here are results for one compound from article PMC8880564, “Design, Synthesis, and Biological Evaluation of a Novel VEGFR-2 Inhibitor Based on a 1,2,5-Oxadiazole-2-Oxide Scaffold with MAPK Signaling Pathway Inhibition” (Pharmaceuticals, 2022).

Holding throughout (format): cell-based, human
The subject of one experiment is p38. The experiment in a line: ELISA assay in HepG-2 cells. As to conditions: HepG-2, 11 µM. The method, then: (§1) The mitogen-activated protein kinase (MAPK) pathway is considered to be a key player in the gene expression of survival, proliferative, and anti-apoptotic proteins. Aberrant dysregulation in the MAPK pathway activity has been linked to the overall poor prognosis in various cancers. […] Additionally, compound 12b was further tested against p38, MKK3, and JNK using ELISA assay protocols at a concentration of 11 µM. […] The overexpression of JNK might have contributed to the NO released from 12b and reactive oxygen species (ROS). In summary, the novel anticancer lead compound 12b is worthy of further investigation and activity improvement.
(§2) The p38, MKK3, and JNK assays were performed according to the manufacturer’s ELISA assay protocols. Briefly, a 96-well plate was seeded with a cell density of 10,000–40,000 cells/well. Then, 50 µL of compound 12b or control (DMSO) was added to appropriate wells in triplicate. Following this, 50 µL of the antibody cocktail (in case of p38; Cat. No. ab221012, Abcam (Waltham, MA, USA) and MKK3; Cat. No. PEL-MKK3-S189-T, RayBiotech, Peachtree Corners, GA, USA) was added to each well. The plate was then sealed and incubated for 1–2.5 h at room temperature with gentle shaking. Each well was washed with 1X Wash Buffer PT (4 × 350 µL), and then the plate was inverted and tapped gently against clean paper towels to remove excess liquid. In case of JNK (Cat. No. ab176662, Abcam, Waltham, MA, USA), this washing step was applied before and after adding 1X rabbit […] antibody, then 100 µL of HRP-conjugated anti-rabbit IgG solution was added and the plate was incubated for 1 h at room temperature with gentle shaking followed by washing (4 × 350 µL). After that, 100 µL of TMB Substrate was added to each well and incubated for 15–30 min in the dark with gentle shaking. Finally, 100 µL of Stop Solution was added to each well and the plate was shaken for 1 min to mix well. The OD was recorded at 450 nm.
(ELISA stands for enzyme-linked immunosorbent assay.)

The test system of the next experiment is JNK. The experiment in a line: ELISA assay in HepG-2 cells. As to conditions: HepG-2, 11 µM. The method, then:
as §1, §2

The subject of a further experiment is MKK3. As to the kind of experiment: ELISA assay in HepG-2 cells. As to conditions: HepG-2, 11 µM. On the procedure: as §1, §2
For another experiment, the system named is N-cadherin. As to the kind of experiment: Quantitative RT-PCR for gene expression in HepG2 cells. The following applies: HepG2, 5.5 or 11 µM, 12 h. From the text: (§3) Epithelial cells express specific genes involved in maintaining apical–basal polarity and adherence, such as epithelial E-cadherin. The epithelial cells migrate to distant locations by over-expressing mesenchymal genes, including neuronal N-cadherin and vimentin [58]. Cancer aggressiveness has been positively correlated with the over-expression of N-cadherin. Therefore, in this study, the partial mechanism of activity of 12b was investigated, by quantitative RT-PCR, with respect to E-cadherin and N-cadherin. […] Additionally, the ability of 12b was confirmed by detecting the change in expression of both pro-apoptotic (Bax) and anti-apoptotic (BCL-2) genes. Compound 12b-treated HepG2 cells (for 12 h) expressed a low level of BCL-2 and over-expressed Bax (Figure 11A).
(§4) HepG2 cells were treated either with DMSO, 5.5 or 11 µM of 12b for 12 h, and then the total RNA was extracted by TRIzol™ Reagent (Invitrogen, Cat. No. 15596018). The RNA concentration and purity were evaluated using a Thermo Scientific™ NanoDrop™ One Microvolume UV-Vis Spectrophotometer. Four µg RNA was reverse transcribed to cDNA using the RevertAid First Strand cDNA Synthesis kit. The level of N-cadherin, E-cadherin, BCL-2, Bax, and GAPDH was detected using the SensiFAST™ SYBR® High-ROX Kit with the StepOne™ Real-Time PCR System (Applied Biosystems™). The expression level was firstly normalized to the level of GAPDH, then calculated as 2^−(ΔΔCt), where ΔCt 12b = (Ct […] Ct GAPDH); ΔCt DMSO = (Ct DMSO ™ Ct GAPDH); ΔΔCt = (ΔCt 12b ™ ΔCt DMSO). Ct is the cycle threshold.

Another experiment concerns Bax. The description is as above. As to conditions: HepG2, 12 h.
Description: as §3, §4

Another experiment deals with E-cadherin. The description is as above. As to conditions: HepG2, 5.5 or 11 µM, 12 h.
Description: as §3, §4

The subject of a further experiment is BCL-2. The experiment is described as above. The following applies: HepG2, 12 h.
Description: as §3, §4

The subject of experiment [1] is HepG2 cells. The experiment in a line: Apoptosis analysis, Annexin-V/PI flow cytometry. As to conditions: HepG2, 5.5 or 11 µM, 24 h. The method, then:
The mechanism of action of 12b was investigated by evaluating its effectiveness in modulating the cell cycle and induction of apoptosis.
Briefly, HepG2 cells (10^6 cells/mL) were treated either with 12b (5.5 or 11 µM) or with DMSO for 24 h, and then were collected after trypsinization and washed twice with 1× PBS. The induction of apoptosis was analyzed by staining cells with PE-Annexin-V [85] in the presence of PI and analyzed using the BD FACS Calibur Flow cytometer.
For orientation: In flow cytometry, cells or beads pass a laser one at a time.

Experiment [2] deals with HepG2 cells. As to the kind of experiment: Intracellular measurement of NO by DAF-FM diacetate flow cytometry. As to conditions: HepG2, 11 µM, 1 h, DAF-FM DA; DMSO 0.1%. On the procedure:
The NO-releasing properties of 12b were evaluated by measuring the level of intracellular NO by flow cytometry, using a cell-permeable and photo-stable NO fluorescent indicator, 3-Amino-4-aminomethyl-2’,7’-difluorofluorescein diacetate (DAF-FM DA), with a detection limit of ~3 nM. DAF-FM diacetate penetrates the cells and is deacetylated by esterase enzyme to yield a non-fluorescent dye, DAF-FM, which, upon reaction with NO, produces a fluorescent benzotriazole product. Compound 12b was efficiently able to increase the production of NO in the treated cells (9.9% vs. 0.1% in DMSO-treated cells; Figure 9). Furthermore, compound 12b increased NO production as efficiently as the positive control reference drug JS-k.
HepG2 cells were collected, and the number was adjusted at 10^6 cells/test, and then they were stained with 5 µM DAF-FM™ diacetate (Invitrogen, Cat. No. D-23844) for 60 min at 37 °C and 5% CO2. After that, the stained cells were washed to remove the excess probe, and then were re-incubated for another 30 min. Following that, the stained cells were treated either with 12b (5.5 or 11 µM) or JS-K as a positive nitric oxide donor or DMSO as a negative control for another 1 h. The fluorescence was detected by flow cytometry using the FITC detection system in a BD flow Cytometer.

Take `[O-][n+]1onc(-c2ccccc2)c1CNc1ccc(Nc2nc(C(F)(F)F)nc3c2cnn3-c2ccc(Br)cc2)cc1` [12b, 3-(((4-((1-(4-bromophenyl)-6-(trifluoromethyl)-1H-pyrazolo[3,4-d]pyrimidin-4-yl)amino)phenyl)amino)methyl)-4-phenyl-1,2,5-oxadiazole 2-oxide]: the “relative expression of p38” value in the experiment with p38 was “low expression”. Also, the “relative expression of JNK” value in the experiment with JNK was “overexpressed”. For the same compound, the “relative expression of MKK3” value with MKK3 is reported as “low expression”. Also, the “expression of neuronal N-cadherin” value in the experiment on N-cadherin is listed as “lower expression”. Besides, the “expression of Bax” value in the experiment on Bax is on record as “over-expressed”. In addition, the “expression of epithelial E-cadherin” value in the experiment on E-cadherin is “increased expression”. Moreover, the “expression of BCL-2” value in the experiment on BCL-2 is “low level”. Besides, the induction of apoptosis entry in the experiment on HepG2 cells [1] is on record as “induction of apoptotic pathways”. Further, the “intracellular NO production (P2)” value in the experiment on HepG2 cells [2] turned out to be 9.9%.
